Data reported in patent EP0244595A2, “Dihydropyridine derivatives, process for their preparation and their use as pharmaceutical compounds” (Byk Gulden Lomberg Chemische Fabrik GmbH, priority 1986, dated 1987).
Where a name gives a salt, the structure may show the parent alone. Read-outs that look alike come from different tables or passages of the source.

System: genetisch hypertonen Ratten
Assay: Antihypertensive effect (systolic blood pressure, tail cuff) in spontaneously hypertensive rats after oral dosing
Format: in vivo, Ratte
Settings: Rattus norvegicus; for change in vivo at 10 µmol/kg: 10 µmol/kg p.o. once daily on four consecutive days; for change in vivo at 25 µmol/kg: 25 µmol/kg p.o. once daily on four consecutive days; for change in vivo at 5 µmol/kg: 5 µmol/kg p.o. once daily on four consecutive days
Description: Die antihypertensive Wirksamkeit der erfindungsgemäßen Verbindungen kann am Modell der spontan hypertonen Ratte nachgewiesen werden.
Zur Bestimmung der antihypertensiven Wirkung werden die unten aufgeführten Verbindungen in den angegebenen Dosen an vier aufeinander folgenden Tagen an je 6 männlichen Ratten (Stamm SHR/N/Ibm/Bm, 250-350 g) mit genetisch bedingtem Hochdruck (systolischer Blutdruck > 180 mmHg) täglich einmal mittels Schlundsonde verabfolgt. Die Messung des Blutdrucks erfolgt jeweils 6 und gegebenenfalls 2 oder 24 Studnen nach Substanzgabe.
Die Blutdruckmessung wird in einer Wärmekammer bei 36°C vorgenommen, um eine bessere Durchblutung der Schwanzarterie zu erreichen. Hierzu werden die Tiere in perforierte Lochblechkäfige verbracht und 20 - 40 Min. nach Beginn der Aufwärmung gemessen. Zur Messung des systolischen arteriellen Drucks wird eine ringförmige Manschette mit aufblasbarer Gummimembran zur Unterbindung der Durchblutung und ein ringförmiger Piezokristallaufnehmer zur Erfassung der Pulswellen auf den Schwanz aufgeschoben. Nach erfolgter Unterbindung des Blutstroms in der Schwanzarterie wird der Manschettendruck kontinuierlich reduziert. Die Wiederkehr der Pulswellen bei Druckablassen wird automatisch als systolischer Blutdruck erkannt und ausgedruckt (Bühler, R. er al." Microprocessor-based automation of blood pressure measurement in the conscious rat. Proceedings of the 4th international symposium on rats with spontaneous hypertension and related studies, Rascher, R. et al. (Eds.), Schattauer Verlag, Stuttgart, New York, 1982, S. 410-413). Pulssignale und Druckverlauf werden zur Auswertung graphisch aufgezeichnet.
Zur Gewöhnung an den Meßvorgang werden die Tiere vor Substanzprüfung 14 Tage trainiert. In der zweiten Trainingswoche werden Blutdruck-Vorwerte erhoben. Tiergruppen, die Substanz erhalten, werden gegen eine Kontrollgruppe geprüft.
In der anschließenden Tabelle werden die untersuchten Verbindungen durch laufende Nummern gekennzeichnet, die mit den jewiligen Beispielnummern übereinstimmen.
Tabelle I gibt für die Vertreter der erfindungsgemäßen Verbindungen die prozentuale Senkung des Blutdrucks (BP) nach oraler Verabreichung bei der Ratte wieder.

[1] = 2h after dosing, mean of days 1+4, male SHR/N/Ibm/Bm rats, N=6, read-out: BP (% Änderung vs. Kontrolle), Mittelwert für Meßzeitpunkte: Stunden nach Gabe (Tage) 2h (1.+4.Tag)
[2] = 6h after dosing, mean of days 1-4, male SHR/N/Ibm/Bm rats, N=6, read-out: BP (% Änderung vs. Kontrolle), Mittelwert für Meßzeitpunkte: Stunden nach Gabe (Tage) 6h (1.-4.Tag)
[3] = 24h after dosing, mean of days 1+3, male SHR/N/Ibm/Bm rats, N=6, read-out: BP (% Änderung vs. Kontrolle), Mittelwert für Meßzeitpunkte: Stunden nach Gabe (Tage) 24h (1.+3.Tag)

SMILES	change in vivo at 10 µmol/kg [1]	change in vivo at 10 µmol/kg [2]	change in vivo at 10 µmol/kg [3]	change in vivo at 25 µmol/kg [1]	change in vivo at 25 µmol/kg [2]	change in vivo at 25 µmol/kg [3]	further results
CC1=C(C(=O)OCCCN2CCN(c3ccc4c(c3)OCO4)CC2)C(c2cccc([N+](=O)[O-])c2)C(C(=O)O[C@@H]2C[C@H](C)CC[C@H]2C(C)C)=C(C)N1 (single isomer, unassigned) [Beispiel 16, 1,4-Dihydro-2,6-dimethyl-4-(3-nitrophenyl)-pyridin-3,5-dicarbonsäure-3-(-)-menthyl-5-{3-[4-(3,4-methylendioxyphenyl)-1-piperazinyt]-propyl}ester-fumarat]	-21%	-21%	-7%	–	–	–	–
CC1=C(C(=O)OCCCN2CCN(c3ccccc3C)CC2)C(c2cccc([N+](=O)[O-])c2)C(C(=O)O[C@@H]2C[C@H](C)CC[C@H]2C(C)C)=C(C)N1 (single isomer, unassigned) [Beispiel 17, 1,4-Dihydro-2,6-dimethyl-4-(3-nitrophenyl)-pyridin-3,5-dicarbonsäure-3-(-)-menthyl-5-{3-[4-(2-tolyl)-1-piperazinyl]-propyl}-ester-fumarat]	-17%	-14%	-3%	–	–	–	–
CC1=C(C(=O)OCCCN2CCN(c3ccc(C)cc3C)CC2)C(c2cccc([N+](=O)[O-])c2)C(C(=O)O[C@@H]2C[C@H](C)CC[C@H]2C(C)C)=C(C)N1 (single isomer, unassigned) [Beispiel 18, 1,4-Dihydro-2,6-dimethyl-4-(3-nitrophenyl)-pyridin-3,5-dicarbonsäure-3-(-)-menthyl-5-{3-[4-(2,4-dimethylphenyl)-1-piperazinyl]-propyl}-ester-fumarat]	-15%	-18%	-3%	–	–	–	–
COc1ccccc1N1CCN(CCCOC(=O)C2=C(C)NC(C)=C(C(=O)O[C@@H]3C[C@H](C)CC[C@H]3C(C)C)C2c2cccc(Cl)c2Cl)CC1 (single isomer, unassigned) [Beispiel 21, 4-(2,3-Dichlorphenyl)-1,4-dihydro-2,6-dimethyl-pyridin-3,5-dicarbonsäure-3-(-)-menthyl-5-{3-[4-(2-methoxyphenyl)-1-piperazinyl]-propyl}ester-fumarat]	–	–	–	-50%	-51%	-46%	–
CCOc1ccccc1N1CCN(CCCOC(=O)C2=C(C)NC(C)=C(C(=O)O[C@@H]3C[C@H](C)CC[C@H]3C(C)C)C2c2cccc(Cl)c2Cl)CC1 (single isomer, unassigned) [Beispiel 22, 4-(2,3-Dichlorphenyl)-1,4-dihydro-2,6-dimethyl-pyridin-3,5-dicarbonsäure-3-(-)-menthyl-5-{3-[4-(2-ethoxyphenyl)-1-piperazinyl]-propyl}ester-fumarat]	–	–	–	-46%	-55%	-43%	–
CC1=C(C(=O)OCCN2CCCCC2)C(c2cccc([N+](=O)[O-])c2)C(C(=O)O[C@@H]2C[C@H](C)CC[C@H]2C(C)C)=C(C)N1 (single isomer, unassigned) [Beispiel 23, 1,4-Dihydro-2,6-dimethyl-4-(3-nitrophenyl)-pyridin-3,5-dicarbonsäure-3-(-)-menthyl-5-[2-(1-piperidinyl)-ethyl]-ester-fumarat]	–	–	–	-17%	-26%	4%	–
CC1=C(C(=O)OCCCN2CCC(c3ccccc3)(c3ccccc3)CC2)C(c2cccc([N+](=O)[O-])c2)C(C(=O)O[C@@H]2C[C@H](C)CC[C@H]2C(C)C)=C(C)N1 (stereo partly drawn) [Beispiel 1a, 1,4-Dihydro-2,6-dimethyl-4-(3-nitrophenyl)-pyridin-3,5-dicarbonsäure-3-(-)-menthyl-5-[3-(4,4-diphenylpiperidyl-1)-propyl]-ester-hydrochlorid]	–	–	–	-24%	-20%	-15%	–
CC1=C(C(=O)OCCCN2CCC(c3ccccc3)CC2)C(c2cccc([N+](=O)[O-])c2)C(C(=O)O[C@@H]2C[C@H](C)CC[C@H]2C(C)C)=C(C)N1 (stereo partly drawn) [Beispiel 2a, 1,4-Dihydro-2,6-dimethyl-4-(3-nitrophenyl)-pyridin-3,5-dicarbonsäure-3-(-)-menthyl-5-[3-(4-phenylpiperidyl-1)-propyl]-ester-hydrochlorid]	–	–	–	-25%	-24%	-16%	–
COc1ccccc1N1CCN(CCCOC(=O)C2=C(C)NC(C)=C(C(=O)O[C@@H]3C[C@H](C)CC[C@H]3C(C)C)C2c2cccc([N+](=O)[O-])c2)CC1 (stereo partly drawn) [Beispiel 3a, 1,4-Dihydro-2,6-dimethyl-4-(3-nitrophenyl)-pyridin-3,5-dicarbonsäure-3-(-)-menthyl-5-{3-[4-(2-methoxyphenyl)-1-piperazinyl]-propyl}-ester-fumarat]	–	–	–	-46%	-42%	-15%	–
CC1=C(C(=O)OCCN2CCN(c3ccccc3)CC2)C(c2cccc([N+](=O)[O-])c2)C(C(=O)O[C@@H]2C[C@H](C)CC[C@H]2C(C)C)=C(C)N1 (stereo partly drawn) [Beispiel 4a, 1,4-Dihydro-2,6-dimethyl-4-(3-nitrophenyl)-pyridin-3,5-dicarbonsäure-3-(-)-menthyl-5-[2-(4-phenyl-1-piperazinyl)-ethyl]ester-fumarat]	–	–	–	–	–	–	change in vivo at 5 µmol/kg [1]: -34%; change in vivo at 5 µmol/kg [2]: -23%; change in vivo at 5 µmol/kg [3]: -14%
CC1=C(C(=O)OCCN2CCN(c3ccccn3)CC2)C(c2cccc([N+](=O)[O-])c2)C(C(=O)O[C@@H]2C[C@H](C)CC[C@H]2C(C)C)=C(C)N1 (stereo partly drawn) [Beispiel 5a, 1,4-Dihydro-2,6-dimethyl-4-(3-nitropheny)-pyridin-3,5-dicarbonsäure-3-(-)-menthyl-5-{2-[4-(2-pyridyl)-1-piperazinyl]-ethyl}-ester-fumarat]	-29%	-11%	-3%	–	–	–	–
